Patent US20110065597A1, “SINGLE MOLECULE PROTEOMICS WITH DYNAMIC PROBES” (LI-COR, INC., priority 2009, published 2011)

How the values were obtained:
[1] = Photostability of dye-labeled secondary antibody in fixed NIH3T3 cells (fluorescence intensity vs exposure number); assay type: physicochemical; conditions: FIG. 3B, compared with IRDye 680 and Alexa Fluor 680
Method: LI-COR IRDye 700DX is shown in FIG. 3A which has multiple charged groups. NIH3T3 cells were fixed and permeabilized, followed by incubation with rabbit anti-histone primary antibody and goat anti-rabbit secondary antibody labeled with IRDye 680, IRDye 700DX, or Alexa Fluor 680. Images were recorded in movies of 2-second exposures by a Roper Micromax CCD in a Zeiss Axiovert S100 microscope. The mean fluorescence intensity of the field is plotted against exposure number (FIG. 3B).

neutravidin = neutravidin (Gallus gallus, UniProt P02701); conditions: at each individual immobilized biotin molecule, picomolar neutravidin in solution; cited from earlier work
Sequence of neutravidin (P02701 25-152): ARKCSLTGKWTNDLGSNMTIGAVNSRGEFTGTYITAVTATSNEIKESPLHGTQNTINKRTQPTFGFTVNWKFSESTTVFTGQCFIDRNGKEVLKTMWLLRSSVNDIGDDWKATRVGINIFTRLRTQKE

SMILES: C[Si](C)(CCC[N+](CCCS(=O)(=O)[O-])(CCCS(=O)(=O)[O-])CCCS(=O)(=O)[O-])O[Si]1(O[Si](C)(C)CCC[N+](CCCS(=O)(=O)[O-])(CCCS(=O)(=O)[O-])CCCS(=O)(=O)[O-])n2c3c4ccccc4c2N=C2N=C(N=c4c5ccccc5c(n41)=NC1=NC(=N3)c3ccccc31)c1cccc(OCCCOC(=O)NCCCCCC(=O)ON3C(=O)CCC3=O)c12.[Na+].[Na+].[Na+].[Na+] (centres unmarked) [IRDye, 700DX]
- photostability [1]: superior

SMILES: O=C(O)CCCC[C@@H]1SC[C@@H]2NC(=O)N[C@@H]21 [biotin]
- diffusion-limited binding rate (neutravidin): 1.9e+08 M⁻¹ s⁻¹
